Measured values from PubChem BioAssay (NCI).
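Compound exposure: 48 hours, 5 concentrations, 96-well plates. Abbreviation: GI50, concentration required for 50% inhibition of growth. TGI: total growth inhibition.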

How the values were obtained:
Assay in all cases: NCI anticancer screen, dose series, 48 h
[1] = system: EKVX NSCLC
[2] = system: OVCAR-3 ovarian
[3] = system: OVCAR-8 ovarian
[4] = system: TK-10 renal
[5] = system: MCF7 breast
[6] = system: A549 NSCLC
[7] = system: HCC-2998 colon
[8] = system: K-562 leukemia
[9] = system: MOLT-4 leukemia
[10] = system: SF-539 CNS
[11] = system: SF-295 CNS
[12] = system: SK-MEL-2 melanoma
[13] = system: OVCAR-4 ovarian
[14] = system: A498 renal
[15] = system: SR leukemia
[16] = system: IGROV1 ovarian
[17] = system: SW-620 colon
[18] = system: SN12C renal
[19] = system: T-47D breast
[20] = system: U251 CNS
[21] = system: CCRF-CEM leukemia
[22] = system: M14 melanoma
[23] = system: BT-549 breast
[24] = system: UACC-257 melanoma
[25] = system: DU-145 prostate
[26] = system: MDA-MB-468 breast
[27] = system: 786-0 renal
[28] = system: ACHN renal
[29] = system: NCI-H460 lung
[30] = system: SK-OV-3 ovarian
[31] = system: HCT-15 colon
[32] = system: SK-MEL-28 melanoma
[33] = system: OVCAR-5 ovarian
[34] = system: KM12 colon
[35] = system: UO-31 renal
[36] = system: HOP-62 NSCLC
[37] = system: RPMI-8226 leukemia
[38] = system: HT29 colon
[39] = system: SNB-19 CNS
[40] = system: NCI-H226 lung
[41] = system: NCI-H23 lung
[42] = system: PC-3 prostate
[43] = system: NCI/ADR-RES ovarian
[44] = system: SNB-75 CNS
[45] = system: MDA-MB-231 breast
[46] = system: COLO 205 colon
[47] = system: LOX IMVI melanoma
[48] = system: HL-60(TB) leukemia
[49] = system: NCI-H522 lung
[50] = system: SK-MEL-5 melanoma
[51] = system: MDA-MB-435
[52] = system: SF-268 CNS
[53] = system: HCT-116 colon
[54] = system: HS 578T breast
[55] = system: MALME-3M melanoma
[56] = system: HOP-92 NSCLC
[57] = system: RXF 393 renal
[58] = system: CAKI-1 renal
[59] = system: UACC-62 melanoma

Compound `CC(=O)Nc1ccc(-c2cn(-c3cccc(C(=O)Nc4ccc(F)c(C(F)(F)F)c4)c3)nn2)cn1` has a GI50 [1] of 18.1 µM, a TGI [1] of 34 µM and a GI50 [2] of 21.2 µM. It also gave a TGI [2] of 41.4 µM, a GI50 [3] of 28 µM and a TGI [3] of 89.8 µM. For the same compound, the GI50 [4] was 23.7 µM, the TGI [4] was 41.1 µM and the GI50 [5] was 16 µM. The TGI [5] was 34.3 µM, the GI50 [6] was 25.2 µM and the TGI [6] was 68.5 µM. For the same compound, the GI50 [7] was 16.9 µM, the TGI [7] was 32.6 µM and the GI50 [8] was 4.13 µM. For the same compound, the TGI [8] was 24.6 µM, the GI50 [9] was 20.2 µM and the TGI [9] was 61.1 µM. The GI50 [10] was 15.1 µM, the TGI [10] was 28.5 µM and the GI50 [11] was 14.6 µM. It also gave a TGI [11] of 28.2 µM, a GI50 [12] of 16.6 µM and a TGI [12] of 34.4 µM. For the same compound, the GI50 [13] was 20.3 µM, the TGI [13] was 40.9 µM and the GI50 [14] was 26.6 µM. The TGI [14] was 43.4 µM, the GI50 [15] was 31 µM and the TGI [15] was greater than 100 µM. It also gave a GI50 [16] of 16.5 µM, a TGI [16] of 30.9 µM and a GI50 [17] of 17.1 µM. For the same compound, the TGI [17] was 33.8 µM, the GI50 [18] was 16.1 µM and the TGI [18] was 30.4 µM. For the same compound, the GI50 [19] was 22.9 µM, the TGI [19] was 66.4 µM and the GI50 [20] was 23.5 µM. It also gave a TGI [20] of 57.7 µM, a GI50 [21] of 22.2 µM and a TGI [21] of 71.5 µM. The GI50 [22] was 15 µM, the TGI [22] was 41.3 µM and the GI50 [23] was 13.2 µM. It also gave a TGI [23] of 30.9 µM, a GI50 [24] of 17.6 µM and a TGI [24] of 38.6 µM. The GI50 [25] was 27 µM, the TGI [25] was 79.3 µM and the GI50 [26] was 14.8 µM. The TGI [26] was 29 µM, the GI50 [27] was 2.6 µM and the TGI [27] was 11.1 µM. The GI50 [28] was 15.7 µM, the TGI [28] was 30.1 µM and the GI50 [29] was 16.8 µM. For the same compound, the TGI [29] was 32.2 µM, the GI50 [30] was 20.7 µM and the TGI [30] was 45.4 µM. It also gave a GI50 [31] of 17.2 µM, a TGI [31] of 33.4 µM and a GI50 [32] of 14.6 µM. The TGI [32] was 28 µM, the GI50 [33] was 17.7 µM and the TGI [33] was 35 µM. It also gave a GI50 [34] of 6.64 µM, a TGI [34] of 53.5 µM and a GI50 [35] of 15.4 µM. The TGI [35] was 29.6 µM, the GI50 [36] was 21.2 µM and the TGI [36] was 44.6 µM. The GI50 [37] was 24.3 µM, the TGI [37] was 66.2 µM and the GI50 [38] was 16.3 µM. It also gave a TGI [38] of 33.6 µM, a GI50 [39] of 19.5 µM and a TGI [39] of 34.9 µM. It also gave a GI50 [40] of 18.4 µM, a TGI [40] of 36.3 µM and a GI50 [41] of 14.8 µM. The TGI [41] was 28.8 µM, the GI50 [42] was 16 µM and the TGI [42] was 38.1 µM. For the same compound, the GI50 [43] was 27.5 µM, the TGI [43] was 89.1 µM and the GI50 [44] was 13.8 µM. It also gave a TGI [44] of 35.7 µM, a GI50 [45] of 11.2 µM and a TGI [45] of 24.1 µM. It also gave a GI50 [46] of 18.3 µM, a TGI [46] of 41.3 µM and a GI50 [47] of 13.8 µM. The TGI [47] was 26.7 µM, the GI50 [48] was 6.57 µM and the TGI [48] was greater than 100 µM. The GI50 [49] was 17.7 µM, the TGI [49] was 38.1 µM and the GI50 [50] was 17.2 µM. For the same compound, the TGI [50] was 34 µM, the GI50 [51] was 16.8 µM and the TGI [51] was 32.9 µM. It also gave a GI50 [52] of 26.5 µM, a TGI [52] of 63.4 µM and a GI50 [53] of 1.47 µM. For the same compound, the TGI [53] was 18.2 µM, the GI50 [54] was 17.4 µM and the TGI [54] was 66.7 µM. It also gave a GI50 [55] of 9.6 µM, a TGI [55] of 21.8 µM and a GI50 [56] of 15.8 µM. For the same compound, the TGI [56] was 35.1 µM, the GI50 [57] was 14.5 µM and the TGI [57] was 31.6 µM. For the same compound, the GI50 [58] was 17.3 µM, the TGI [58] was 32.7 µM and the GI50 [59] was 14.2 µM. It also gave a TGI [59] of 27.6 µM.
